Laboratory results: ChEMBL document CHEMBL1134504, “Synthesis and cytotoxic activity of 7-oxo-7H-dibenz[f,ij]isoquinoline and 7-oxo-7H-benzo[e]perimidine derivatives” (J Med Chem, 2001)

Columns and labels:
Jurkat [1] = test: Ratio of IC50 against Jurkat human leukemia amsacrine-resistant cells (JLA) to Jurkat human leukemia cells (JLC); format: functional
[2] = tested on: Lewis lung carcinoma cell line; test: Inhibitory activity against Lewis lung carcinoma cells; format: functional, cell-based; settings: Mus musculus
P388 = test: Inhibitory activity against P388 murine leukemia cells; format: functional, cell-based; settings: Mus musculus
Jurkat [3] = test: Inhibitory activity against Jurkat human leukemia cells; format: functional, cell-based
Jurkat [4] = test: Ratio of IC50 against Jurkat human leukemia doxorubicin-resistant cells (JLD) to Jurkat human leukemia cells (JLC); format: functional

CN(C)CCNC(=O)c1nc2c3c(cccc3n1)C(=O)c1ccccc1-2
IC50 ratio (Jurkat [1]): 1 | IC50 [2]: 1.03 µM | IC50 (P388): 1.5 µM | IC50 (Jurkat [3]): 1.24 µM | IC50 ratio (Jurkat [4]): 0.9

CN(C)CCNc1nc2c3c(cccc3n1)C(=O)c1ccccc1-2
IC50 ratio (Jurkat [1]): 0.7 | IC50 [2]: 0.525 µM | IC50 (P388): 1 µM | IC50 (Jurkat [3]): 0.86 µM | IC50 ratio (Jurkat [4]): 0.7

CC[C@@]1(O)C(=O)OCc2c1cc1n(c2=O)Cc2cc3ccccc3nc2-1 [CAMPTOTHECIN]
IC50 ratio (Jurkat [1]): 2 | IC50 [2]: 0.033 µM | IC50 (P388): 0.013 µM | IC50 (Jurkat [3]): 0.0056 µM | IC50 ratio (Jurkat [4]): 1.4

CN(C)CCNC(=O)c1cc2c3c(cccc3n1)C(=O)c1cccc(Cl)c1-2
IC50 ratio (Jurkat [1]): 0.7 | IC50 [2]: 0.128 µM | IC50 (P388): 0.13 µM | IC50 (Jurkat [3]): 0.238 µM | IC50 ratio (Jurkat [4]): 0.8

Cc1cc2c3c(cccc3n1)C(=O)c1cccc(C(=O)NCCN(C)C)c1-2
IC50 ratio (Jurkat [1]): 2.5 | IC50 [2]: 0.101 µM | IC50 (P388): 0.1 µM | IC50 (Jurkat [3]): 0.424 µM | IC50 ratio (Jurkat [4]): 2.5

Cc1cc2c3c(ccc(C(=O)NCCN(C)C)c3n1)C(=O)c1ccccc1-2
IC50 ratio (Jurkat [1]): 1.2 | IC50 [2]: 0.717 µM | IC50 (P388): 0.89 µM | IC50 (Jurkat [3]): 0.717 µM | IC50 ratio (Jurkat [4]): 1

CN(C)CCNC(=O)c1cc2c3c(cccc3n1)C(=O)c1c(Cl)cccc1-2
IC50 ratio (Jurkat [1]): 1 | IC50 [2]: 0.483 µM | IC50 (P388): 0.8 µM | IC50 (Jurkat [3]): 0.758 µM | IC50 ratio (Jurkat [4]): 0.9

Cc1cc2c3c(cccc3n1)C(=O)c1c(C(=O)NCCN(C)C)cccc1-2
IC50 ratio (Jurkat [1]): 1 | IC50 [2]: 1.79 µM | IC50 (P388): 6.6 µM | IC50 (Jurkat [3]): 1.42 µM | IC50 ratio (Jurkat [4]): 1.1

COc1cc(NS(C)(=O)=O)ccc1Nc1c2ccccc2nc2ccccc12 [AMSACRINE]
IC50 ratio (Jurkat [1]): 85 | IC50 ratio (Jurkat [4]): 74

CN(C)CCc1cc2c3c(cccc3n1)C(=O)c1ccccc1-2
IC50 ratio (Jurkat [1]): 0.8 | IC50 [2]: 0.887 µM | IC50 (P388): 2.3 µM | IC50 (Jurkat [3]): 1.01 µM | IC50 ratio (Jurkat [4]): 0.8

O=C1c2ccccc2-c2cc(/C=N/NC3=NCCN3)nc3cccc1c23
IC50 ratio (Jurkat [1]): 1 | IC50 [2]: 0.83 µM | IC50 (P388): 0.34 µM | IC50 (Jurkat [3]): 0.422 µM | IC50 ratio (Jurkat [4]): 1.1

CN(C)CCNC(=O)c1cc2c3c(ccc(Cl)c3n1)C(=O)c1c(C(=O)NCCN(C)C)cccc1-2
IC50 ratio (Jurkat [1]): 0.9 | IC50 [2]: 0.2 µM | IC50 (P388): 5.8 µM | IC50 (Jurkat [3]): 0.8 µM | IC50 ratio (Jurkat [4]): 1.6

CN(C)CC/N=C/c1cc2c3c(cccc3n1)C(=O)c1ccccc1-2
IC50 ratio (Jurkat [1]): 0.6 | IC50 [2]: 2.48 µM | IC50 (P388): 6.2 µM | IC50 (Jurkat [3]): 3.36 µM | IC50 ratio (Jurkat [4]): 0.8

CN(C)CCNc1cc2c3c(cccc3n1)C(=O)c1ccccc1-2
IC50 ratio (Jurkat [1]): 0.8 | IC50 [2]: 1.08 µM | IC50 (P388): 1.3 µM | IC50 (Jurkat [3]): 1.16 µM | IC50 ratio (Jurkat [4]): 0.9

CN(C)CCNC(=O)c1cc2c3c(cccc3n1)C(=O)c1ccccc1-2
IC50 ratio (Jurkat [1]): 0.2 | IC50 [2]: 0.035 µM | IC50 (P388): 0.6 µM | IC50 (Jurkat [3]): 0.165 µM | IC50 ratio (Jurkat [4]): 0.8

CN(C)CC(CN(C)C)c1cc2c3c(cccc3n1)C(=O)c1ccccc1-2
IC50 ratio (Jurkat [1]): 0.8 | IC50 [2]: 0.098 µM | IC50 (P388): 0.11 µM | IC50 (Jurkat [3]): 0.55 µM | IC50 ratio (Jurkat [4]): 1

CN(CCNC(=O)c1cc2c3c(cccc3n1)C(=O)c1ccccc1-2)CCN(C)CCNC(=O)c1cc2c3c(cccc3n1)C(=O)c1ccccc1-2
IC50 ratio (Jurkat [1]): 0.2 | IC50 [2]: 0.472 µM | IC50 (P388): 0.79 µM | IC50 (Jurkat [3]): 0.566 µM | IC50 ratio (Jurkat [4]): 0.8
